Results: the NIST ThermoML archive (doi:10.1021/je800817b)

Test: xn = mol fraction of the nth substance listed
Conditions: 101 kPa, Liquid, x1 = 0

Compound	binary diffusion coefficient (283 K) [m2/s]	binary diffusion coefficient (298 K) [m2/s]	binary diffusion coefficient (313 K) [m2/s]	binary diffusion coefficient (323 K) [m2/s]	binary diffusion coefficient (333 K) [m2/s]	binary diffusion coefficient (303 K) [m2/s]
CCCCCCCCn1cc[n+](C)c1.O=S(=O)([N-]S(=O)(=O)C(F)(F)F)C(F)(F)F + CC#N	1.62e-09	2e-09	2.31e-09	2.57e-09	2.86e-09	–
CCCCCC[n+]1ccn(C)c1.O=S(=O)([N-]S(=O)(=O)C(F)(F)F)C(F)(F)F + CC#N	1.67e-09	2.1e-09	2.51e-09	2.74e-09	2.99e-09	–
CCCC[n+]1ccn(C)c1.O=S(=O)([N-]S(=O)(=O)C(F)(F)F)C(F)(F)F + CC#N	1.7e-09	2.22e-09	2.7e-09	3.07e-09	3.45e-09	–
CCn1cc[n+](C)c1.O=S(=O)([N-]S(=O)(=O)C(F)(F)F)C(F)(F)F + CC#N	1.79e-09	2.29e-09	2.78e-09	3.15e-09	3.48e-09	–
CCCCCCCCn1cc[n+](C)c1.O=S(=O)([N-]S(=O)(=O)C(F)(F)F)C(F)(F)F + CO	9.9e-10	1.32e-09	1.59e-09	1.83e-09	2.12e-09	–
CCCCCC[n+]1ccn(C)c1.O=S(=O)([N-]S(=O)(=O)C(F)(F)F)C(F)(F)F + CO	1.05e-09	1.34e-09	1.64e-09	1.99e-09	2.21e-09	–
CCCC[n+]1ccn(C)c1.O=S(=O)([N-]S(=O)(=O)C(F)(F)F)C(F)(F)F + CO	1.11e-09	1.48e-09	1.88e-09	2.15e-09	2.43e-09	–
CCn1cc[n+](C)c1.O=S(=O)([N-]S(=O)(=O)C(F)(F)F)C(F)(F)F + CO	1.17e-09	1.6e-09	2.03e-09	2.3e-09	2.69e-09	–
CCCCCCCCn1cc[n+](C)c1.O=S(=O)([N-]S(=O)(=O)C(F)(F)F)C(F)(F)F + O	5.7e-10	8.1e-10	1.05e-09	1.31e-09	1.47e-09	8.7e-10
CCCCCC[n+]1ccn(C)c1.O=S(=O)([N-]S(=O)(=O)C(F)(F)F)C(F)(F)F + O	5.8e-10	8.3e-10	1.15e-09	1.39e-09	1.63e-09	9e-10
CCCC[n+]1ccn(C)c1.O=S(=O)([N-]S(=O)(=O)C(F)(F)F)C(F)(F)F + O	6e-10	8.5e-10	1.16e-09	1.47e-09	1.74e-09	9.6e-10
CCn1cc[n+](C)c1.O=S(=O)([N-]S(=O)(=O)C(F)(F)F)C(F)(F)F + O	6.1e-10	8.9e-10	1.27e-09	1.55e-09	1.85e-09	9.8e-10
CCCCn1cc[n+](C)c1.[Cl-] [1-butyl-3-methylimidazolium chloride] + O	8.3e-10	1.18e-09	1.66e-09	2.01e-09	2.4e-09	1.32e-09
CCCCn1cc[n+](C)c1.F[B-](F)(F)F [1-butyl-3-methylimidazolium tetrafluoroborate] + O	7.7e-10	1.14e-09	1.55e-09	1.97e-09	2.26e-09	1.28e-09
